Target: T1, recombinant human 5-HT5A receptor (Homo sapiens, UniProt P47898)
T1 construct: expressed in transfected cells; host or cells: HEK-EBNA (Human Embryonic Kidney-EBNA) cells, transient cDNA expression; membranes
Assay: [3H]LSD radioligand binding assay
Conditions: [3H]LSD (approximately 1 nM); membranes from transiently expressed 5-HT5A receptors in HEK-EBNA cells; Ki from IC50 by Cheng-Prussoff equation
Description: A [^3H]LSD radioligand binding assay was used to determine the affinity of the compounds for the recombinant human 5-HT5A receptor, in membranes from transiently (cDNA) expressed 5-HT5A receptors in Human Embryonic Kidney-EBNA (HEK-EBNA) cells. Assay buffer consisted of Tris (50 mM) buffer containing 1 mM EGTA, 10 mM MgCl2 (pH 7.4) and 10 μM pargyline. The binding assay was carried out in 96-well-plates in the presence of [^3H]LSD (approximately 1 nM), approximately 2 μg/well of membrane protein, and 0.5 mg of Ysi-poly-1-lysine SPA beads in a final volume of 200 μl of buffer. Non-specific binding was defined using methiothepin 2 μM. Compounds were tested at 10 concentrations. All assays were conducted in duplicate and repeated at least two times. Assay plates were incubated for 120 min at room temperature before centrifugation. Bound ligand was determined using a Packard Topcount scintillation counter. IC50 values were calculated using a non-linear curve fitting program and Ki values calculated using the Cheng-Prussoff equation.

T1 sequence (P47898 whole entry): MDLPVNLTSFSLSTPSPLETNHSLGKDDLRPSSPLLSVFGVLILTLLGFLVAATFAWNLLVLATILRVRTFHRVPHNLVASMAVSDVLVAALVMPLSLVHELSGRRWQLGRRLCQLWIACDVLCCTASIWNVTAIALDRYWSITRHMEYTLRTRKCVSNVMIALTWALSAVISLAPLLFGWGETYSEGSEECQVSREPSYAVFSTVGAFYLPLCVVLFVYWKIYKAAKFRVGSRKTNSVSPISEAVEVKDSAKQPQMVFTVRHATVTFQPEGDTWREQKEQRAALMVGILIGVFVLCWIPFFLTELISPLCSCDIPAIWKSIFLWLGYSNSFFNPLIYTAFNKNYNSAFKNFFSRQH

Row | Molecule | Ki [nM]
1 | O=C(Nc1ccc2nc(N[C@@H]3CCc4ccccc43)ccc2c1)NC1CCN(CCF)CC1 [Example 97, 1-[1-(2-Fluoro-ethyl)-piperidin-4-yl]-3-[2-((R)-indan-1-ylamino)-quinolin-6-yl]-urea] | 2.9
2 | O=C(Nc1ccc2nc(N[C@@H]3CCc4ccccc43)ccc2c1)N[C@@H]1C[C@H]2CC[C@@H](C1)N2C1CC1 [Example 99, 1-((3-exo)-8-Cyclopropyl-8-aza-bicyclo[3.2.1]oct-3-yl)-3-[2-((R)-indan-1-ylamino)-quinolin-6-yl]-urea] | 3.9
3 | CN1[C@@H]2CC[C@H]1C[C@H](NC(=O)Nc1ccc3nc(N[C@@H]4CCc5ccccc54)ccc3c1)C2 [Example 101, 1-[2-((R)-Indan-1-ylamino)-quinolin-6-yl]-3-((3-exo)-8-methyl-8-aza-bicyclo[3.2.1]oct-3-yl)-urea] | 3.7
4 | O=C(Nc1ccc2nc(N[C@@H]3CCc4ccccc43)ccc2c1)N[C@@H]1C[C@H]2CCC[C@@H](C1)N2C1CC1 [Example 110, 1-((3-exo)-9-Cyclopropyl-9-aza-bicyclo[3.3.1]non-3-yl)-3-[2-((R)-indan-1-ylamino)-quinolin-6-yl]-urea] | 7.2
5 | N#CCN1CCC(NC(=O)Nc2ccc3nc(N[C@@H]4CCc5ccccc54)ccc3c2)CC1 [Example 133, 1-(1-Cyanomethyl-piperidin-4-yl)-3-[2-((R)-indan-1-ylamino)-quinolin-6-yl]-urea] | 4.2
6 | CS(=O)(=O)CCN1CCC(NC(=O)Nc2ccc3nc(N[C@@H]4CCc5ccccc54)ccc3c2)CC1 [Example 135, 1-[2-((R)-Indan-1-ylamino)-quinolin-6-yl]-3-[1-(2-methanesulfonyl-ethyl)-piperidin-4-yl]-urea] | 5.7
7 | CN(C)C(=O)CN1CCC(NC(=O)Nc2ccc3nc(N[C@@H]4CCc5ccccc54)ccc3c2)CC1 [Example 136, 2-(4-{3-[2-((R)-Indan-1-ylamino)-quinolin-6-yl]-ureido}-piperidin-1-yl)-N,N-dimethylacetamide] | 6.5
8 | O=C(Nc1ccc2nc(N[C@@H]3CCc4ccccc43)ccc2c1)NC1CCN(CCO)CC1 [Example 137, 1-[1-(2-Hydroxy-ethyl)-piperidin-4-yl]-3-[2-((R)-indan-1-ylamino)-quinolin-6-yl]-urea] | 1.7
9 | CC(C)OC(=O)Nc1ccc2nc(N[C@@H]3CCc4ccccc43)ccc2c1 [Example 138, [2-((R)-Indan-1-ylamino)-quinolin-6-yl]-carbamic acid isopropyl ester] | 8
10 | COc1cccc2c1C(Nc1ccc3cc(NS(=O)(=O)N4C[C@@H]5C[C@H]4CO5)ccc3n1)CC2 (stereo partly drawn) [Example 148, (1S,4S)-2-Oxa-5-aza-bicyclo[2.2.1]heptane-5-sulfonic acid [2-(7-methoxy-indan-1-ylamino)-quinolin-6-yl]-amide] | 2.1
11 | NC(=S)Nc1ccc2nc(N[C@@H]3CCc4ccccc43)ccc2c1 [Example 149, [2-((R)-Indan-1-ylamino)-quinolin-6-yl]-thiourea] | 14.8
12 | CC(C)N=C(Nc1ccc2nc(N[C@@H]3CCc4ccccc43)ccc2c1)NC(C)C [Example 166, N-[2-((R)-Indan-1-ylamino)-quinolin-6-yl]-N′,N″-diisopropyl-guanidine] | 33.7
13 | CC(C)N1C2CCCC1CC(NC(=O)Nc1ccc3nc(NC4CCc5ccccc54)ccc3c1)C2 [Example 168, 1-[2-((R)-Indan-1-ylamino)-quinolin-6-yl]-3-((3-exo)-9-isopropyl-9-aza-bicyclo[3.3.1]non-3-yl)-urea] | 7.8
14 | CC(C)N1[C@@H]2CC[C@H]1C[C@H](NC(=O)Nc1ccc3nc(N[C@@H]4CCc5ccccc54)ccc3c1)C2 [Example 170, 1-[2-((R)-Indan-1-ylamino)-quinolin-6-yl]-3-((3-exo)-8-isopropyl-8-aza-bicyclo[3.2.1]oct-3-yl)-urea] | 7.1
15 | CN1CCN(CC(=O)Nc2ccc3nc(N[C@@H]4CCc5ccccc54)ccc3c2)CC1 [Example 210, N-[2-((R)-Indan-1-ylamino)-quinolin-6-yl]-2-(4-methyl-piperazin-1-yl)-acetamide] | 6.7
16 | (2-Methoxy-ethyl)-methyl-sulfonic acid [2-((R)-indan-1-ylamino)quinolin-6-yl]-amide [Example 75] | 8.3

Source: patent US8183380B2, “2-aminoquinolines” (Hoffmann-La Roche Inc., priority 2008, dated 2012)
